Values of other authors in publication PMC9329312, “Decoding kinase-adverse event associations for small molecule kinase inhibitors” (Nature Communications, 2022).

Conditions: ref FAERS

CCOc1cc2ncc(C#N)c(Nc3ccc(OCc4ccccn4)c(Cl)c3)c2cc1NC(=O)/C=C/CN(C)C [neratinib]
Intra-abdominal fluid collection, % of Cases: 0.15% | Intracranial artery dissection, % of Cases: 0.075% | Irritability, % of Cases: 0.15% | Ischaemic stroke, % of Cases: 0.075% | Joint injury, % of Cases: 0.075% | Joint stiffness, % of Cases: 0.15% | Joint swelling, % of Cases: 0.225% | Kidney infection, % of Cases: 0.075% | Klebsiella infection, % of Cases: 0.075% | Labelled drug-drug interaction medication error, % of Cases: 0.15% | Laboratory test abnormal, % of Cases: 0.15% | Large intestinal haemorrhage, % of Cases: 0.075% | Large intestinal obstruction, % of Cases: 0.075% | Lethargy, % of Cases: 0.45% | Ligament sprain, % of Cases: 0.15% | Lip swelling, % of Cases: 0.3% | Liver disorder, % of Cases: 0.15% | Liver function test increased, % of Cases: 0.45% | Liver injury, % of Cases: 0.225% | Localised infection, % of Cases: 0.075% | Loss of consciousness, % of Cases: 0.3% | Lower limb fracture, % of Cases: 0.075% | Lower respiratory tract infection, % of Cases: 0.075% | Lung cancer metastatic, % of Cases: 0.075% | Lung disorder, % of Cases: 0.15% | Lung neoplasm malignant, % of Cases: 0.375% | Lymph node haemorrhage, % of Cases: 0.075% | Lymphocyte count decreased, % of Cases: 0.075% | Lymphoedema, % of Cases: 0.15% | Magnetic resonance imaging abnormal, % of Cases: 0.075% | Magnetic resonance imaging head abnormal, % of Cases: 0.075% | Malaise, % of Cases: 1.5% | Malignant ascites, % of Cases: 0.075% | Malignant neoplasm of unknown primary site, % of Cases: 0.075% | Malignant neoplasm progression, % of Cases: 0.45% | Malignant pleural effusion, % of Cases: 0.075% | Malnutrition, % of Cases: 0.15% | Mass, % of Cases: 0.15% | Mastectomy, % of Cases: 0.225% | Medical procedure, % of Cases: 0.075% | Memory impairment, % of Cases: 0.45% | Menopausal symptoms, % of Cases: 0.075% | Menstruation delayed, % of Cases: 0.075% | Mental impairment, % of Cases: 0.075% | Mesenteric artery stenosis, % of Cases: 0.075% | Metastases to abdominal cavity, % of Cases: 0.075% | Metastases to bone, % of Cases: 0.375% | Metastases to central nervous system, % of Cases: 1.6% | Metastases to liver, % of Cases: 0.3% | Metastases to lung, % of Cases: 0.3% | Metastases to lymph nodes, % of Cases: 0.075% | Metastases to meninges, % of Cases: 0.075% | Metastases to peritoneum, % of Cases: 0.075% | Metastases to spine, % of Cases: 0.075% | Metastatic neoplasm, % of Cases: 0.15% | Microcytic anaemia, % of Cases: 0.075% | Micturition urgency, % of Cases: 0.075% | Middle ear effusion, % of Cases: 0.075% | Migraine, % of Cases: 0.375% | Monocyte count increased, % of Cases: 0.075% | Monoplegia, % of Cases: 0.075% | Mood swings, % of Cases: 0.075% | Mouth haemorrhage, % of Cases: 0.075% | Mouth swelling, % of Cases: 0.075% | Mouth ulceration, % of Cases: 0.15% | Movement disorder, % of Cases: 0.075% | Muscle spasms, % of Cases: 4.2% | Muscle twitching, % of Cases: 0.15% | Muscular weakness, % of Cases: 0.375% | Musculoskeletal chest pain, % of Cases: 0.15% | Musculoskeletal stiffness, % of Cases: 0.3% | Myalgia, % of Cases: 0.9% | Myelosuppression, % of Cases: 0.075% | Myocardial infarction, % of Cases: 0.075% | Myopia, % of Cases: 0.075% | Nail discolouration, % of Cases: 0.225% | Nail disorder, % of Cases: 0.375% | Nail growth abnormal, % of Cases: 0.075% | Nasal congestion, % of Cases: 0.45% | Nasal dryness, % of Cases: 0.3% | Nasal ulcer, % of Cases: 0.075% | Nasopharyngitis, % of Cases: 1.4% | Nausea, % of Cases: 29.7% | Neck pain, % of Cases: 0.15% | Negative thoughts, % of Cases: 0.15% | Neoplasm malignant, % of Cases: 0.075% | Neoplasm progression, % of Cases: 0.45% | Nephrolithiasis, % of Cases: 0.15% | Nervous system disorder, % of Cases: 0.15% | Nervousness, % of Cases: 0.075% | Neuralgia, % of Cases: 0.075% | Neuropathy peripheral, % of Cases: 1.1% | Neutropenia, % of Cases: 0.375% | Neutrophil count increased, % of Cases: 0.075% | Night sweats, % of Cases: 0.15% | Nightmare, % of Cases: 0.075% | Ocular hyperaemia, % of Cases: 0.15% | Oedema peripheral, % of Cases: 0.075% | Oesophageal pain, % of Cases: 0.075% | Off label use, % of Cases: 11.6% | Onychalgia, % of Cases: 0.075% | Onychoclasis, % of Cases: 0.8% | Onycholysis, % of Cases: 0.15% | Onychomycosis, % of Cases: 0.075% | Oral discomfort, % of Cases: 0.3% | Oral herpes, % of Cases: 0.075% | Oral mucosal blistering, % of Cases: 0.225% | Oral pain, % of Cases: 0.3% | Oropharyngeal pain, % of Cases: 1.1% | Orthostatic hypotension, % of Cases: 0.075% | Osteoarthritis, % of Cases: 0.15% | Osteonecrosis of jaw, % of Cases: 0.075% | Oxygen saturation decreased, % of Cases: 0.075% | Oxygen saturation increased, % of Cases: 0.075% | PIK3CA-activated mutation, % of Cases: 0.075% | Pain in extremity, % of Cases: 0.9% | Pain, % of Cases: 1.4% | Palmar-plantar erythrodysaesthesia syndrome, % of Cases: 0.3% | Palpitations, % of Cases: 0.15% | Pancreatic carcinoma, % of Cases: 0.075% | Pancreatic mass, % of Cases: 0.075% | Pancreatitis acute, % of Cases: 0.225% | Pancreatitis, % of Cases: 0.5% | Panic attack, % of Cases: 0.075% | Papilloedema, % of Cases: 0.075% | Papule, % of Cases: 0.075% | Paraesthesia oral, % of Cases: 0.075% | Paraesthesia, % of Cases: 0.45% | Paranasal sinus hypersecretion, % of Cases: 0.075% | Paranasal sinus hyposecretion, % of Cases: 0.075% | Paronychia, % of Cases: 0.15% | Pericardial effusion, % of Cases: 0.075% | Periorbital swelling, % of Cases: 0.075% | Peripheral swelling, % of Cases: 0.75% | Pharyngitis, % of Cases: 0.075% | Photopsia, % of Cases: 0.075% | Photosensitivity reaction, % of Cases: 0.075% | Physical deconditioning, % of Cases: 0.075% | Physical disability, % of Cases: 0.075% | Platelet count decreased, % of Cases: 0.225% | Platelet count increased, % of Cases: 0.075% | Pleural effusion, % of Cases: 0.225% | Pneumonia, % of Cases: 1.1% | Pneumonitis, % of Cases: 0.075% | Pollakiuria, % of Cases: 0.375% | Poor quality sleep, % of Cases: 0.075% | Post procedural bile leak, % of Cases: 0.075% | Post procedural infection, % of Cases: 0.075% | Post procedural swelling, % of Cases: 0.075% | Postoperative wound infection, % of Cases: 0.15% | Prescribed overdose, % of Cases: 0.075% | Prescribed underdose, % of Cases: 1.3% | Presyncope, % of Cases: 0.075% | Procedural pain, % of Cases: 0.075% | Proctalgia, % of Cases: 0.075% | Product administered to patient of inappropriate age, % of Cases: 0.075% | Product administration error, % of Cases: 0.9% | Product dose omission in error, % of Cases: 0.075% | Product dose omission issue, % of Cases: 7.8% | Product identification number issue, % of Cases: 0.075% | Product name confusion, % of Cases: 0.075% | Product packaging quantity issue, % of Cases: 0.075% | Product physical issue, % of Cases: 0.15% | Product prescribing error, % of Cases: 0.075% | Product use in unapproved indication, % of Cases: 0.15% | Product use issue, % of Cases: 0.15% | Productive cough, % of Cases: 0.225% | Prosthesis implantation, % of Cases: 0.075% | Pruritus, % of Cases: 1.2% | Pulmonary embolism, % of Cases: 0.075% | Pulmonary hypertension, % of Cases: 0.075% | Pulmonary oedema, % of Cases: 0.15% | Pulmonary pain, % of Cases: 0.075%
